Six compounds from DBAASP can be followed below.

Values after ≈ are worked out from the molar mass of the structure shown.

One may read the MIC as the lowest concentration that inhibits growth of the organism.

Some test systems named below: Escherichia coli K88; Escherichia coli UB1005; Escherichia coli 078; Escherichia coli K99; Escherichia coli 987P; Escherichia coli BL21; Escherichia coli E44813; Streptococcus agalactiae.
Experiment in all cases: ≥ marks a high value that may be exact or a test limit, other limits are often not marked, values filed in µg/mL are converted to µM
The subject of assay [1] is Staphylococcus aureus ATCC 35556.
The test system of assay [2] is Pseudomonas aeruginosa ATCC 47085.
In assay [3] the test system is Acinetobacter baumannii ATCC 19606.
Assay [4] deals with Escherichia coli D31 CGSC 5165.
Assay [5] relates to Streptococcus agalactiae ATCC 13813.
For assay [6], the system named is Lactiplantibacillus plantarum 8014.
Assay [7] has as its system Pseudomonas aeruginosa ATCC 27853.
The subject of assay [8] is Salmonella enterica subsp. enterica serovar Typhimurium C77-31.
Assay [9] relates to Lacticaseibacillus rhamnosus 1.9205.
In assay [10] the test system is Lacticaseibacillus rhamnosus 1.0385.
Assay [11] concerns Staphylococcus epidermidis ATCC 12228.
For assay [12], the system named is Staphylococcus aureus ATCC 25923.
Assay [13] relates to Lacticaseibacillus rhamnosus 1.0386.
The test system of assay [14] is Lacticaseibacillus rhamnosus 7469.
The subject of assay [15] is Staphylococcus aureus ATCC 29213.
The subject of assay [16] is Lacticaseibacillus rhamnosus 1.0911.
Assay [17] deals with Staphylococcus epidermidis.
Assay [18] concerns Pseudomonas aeruginosa PAO1.
In assay [19] the test system is Staphylococcus aureus ATCC BAA-41.
For assay [20], the system named is Staphylococcus aureus ATCC 6538P.
The test system of assay [21] is Pasteurella multocida C48-3.
Assay [22] concerns Listeria monocytogenes CICC 21533.
Assay [23] relates to Salmonella enterica subsp. enterica serovar Choleraesuis C78-1.
Assay [24] has as its system Shigella flexneri CICC 21534.
Assay [25] has as its system Salmonella typhimurium SL1344.
For assay [26], the system named is Bacillus subtilis CICC 24434.
In assay [27] the test system is Staphylococcus epidermidis LY8.
Assay [28] concerns Mannheimia haemolytica 82-25.
Assay [29] deals with Escherichia coli ATCC 25922.
Assay [30] has as its system Streptococcus thermophilus YM-C.
Assay [31] has as its system Salmonella enterica subsp. enterica serovar Pullorum ATCC 7913.
Assay [32] has as its system Salmonella enterica subsp. enterica serovar Typhimurium ATCC 14028.
The test system of assay [33] is Streptococcus agalactiae CICC 10465.

Take `CC[C@H](C)[C@H](NC(=O)[C@H](CCCN=C(N)N)NC(=O)CNC(=O)[C@H](CC(C)C)NC(=O)[C@@H](NC(=O)[C@H](C)NC(=O)[C@H](CCCN=C(N)N)NC(=O)CNC(=O)[C@H](C)NC(=O)CNC(=O)[C@H](CCCN=C(N)N)NC(=O)[C@H](CCSC)NC(=O)[C@H](CCCN=C(N)N)NC(=O)[C@@H](NC(=O)[C@H](Cc1c[nH]c2ccccc12)NC(=O)[C@H](CC(C)C)NC(=O)[C@H](CCC(=O)O)NC(=O)[C@H](CCCN=C(N)N)NC(=O)[C@H](CC(C)C)NC(=O)[C@@H](N)CC(C)C)[C@@H](C)O)C(C)C)C(=O)N[C@@H](CCCN=C(N)N)C(=O)NCC(=O)N[C@@H](CC(C)C)C(=O)N[C@@H](CC(C)C)C(=O)O` [LLRELWTRMRGAGRAVLGRIRGLL]: the MIC came to 1.88 µM (≈ 5.2 µg/mL) in [1], 15 µM (≈ 41.5 µg/mL) in [2], 0.94 µM (≈ 2.6 µg/mL) in [3] and 0.94 µM (≈ 2.6 µg/mL) in assay [4].
Regarding `CC[C@H](C)[C@H](NC(=O)[C@H](CCCCN)NC(=O)[C@@H](NC(=O)[C@@H](N)Cc1c[nH]c2ccccc12)[C@@H](C)CC)C(=O)N[C@@H](Cc1c[nH]c2ccccc12)C(=O)N[C@@H](CCCCN)C(=O)N[C@@H](CCCCN)C(=O)N[C@H](C(=O)N[C@H](C(=O)N[C@@H](CCCCN)C(=O)N[C@@H](CCCCN)C(=O)N[C@@H](Cc1c[nH]c2ccccc12)C(=O)N[C@@H](CCCCN)C(=O)N[C@@H](CCCCN)C(=O)O)[C@@H](C)CC)[C@@H](C)CC` [WIKIWKKIIKKWKK], the minimum inhibitory concentration (MIC) in assay [5] is 8 µM (≈ 15.4 µg/mL); against Escherichia coli K88, 8 µM (≈ 15.4 µg/mL); in [6], at least 128 µM; in the assay on Escherichia coli UB1005 it was 8 µM (≈ 15.4 µg/mL); with Escherichia coli 078, 16 µM (≈ 30.8 µg/mL); in assay [7], 4 µM (≈ 7.71 µg/mL). For the same compound, the MIC was at least 128 µM in [8]; 4 µM (≈ 7.71 µg/mL) against Escherichia coli K99; at least 128 µM in [9]; at least 128 µM in assay [10]; 4 µM (≈ 7.71 µg/mL) in assay [11]; 2 µM (≈ 3.85 µg/mL) with Escherichia coli 987P. The MIC in [12] is 8 µM (≈ 15.4 µg/mL); in assay [13], at least 128 µM; in assay [14] it was at least 128 µM; in assay [15] it was 4 µM (≈ 7.71 µg/mL); in [16], at least 128 µM.
Turning to `CC[C@H](C)[C@H](NC(=O)[C@H](CCCCN)NC(=O)[C@H](CCCCN)NC(=O)[C@H](Cc1ccccc1)NC(=O)[C@H](CC(C)C)NC(=O)[C@H](CCCCN)NC(=O)[C@H](Cc1c[nH]c2ccccc12)NC(=O)[C@@H](N)CCCCN)C(=O)NCC(=O)N[C@@H](CCCCN)C(=O)N[C@H](C(=O)N[C@@H](CC(C)C)C(=O)N[C@@H](CCCCN)C(=O)N[C@H](C(=O)N[C@@H](CC(C)C)C(=O)O)C(C)C)C(C)C` [KWKLFKKIGKVLKVL], the MIC in assay [17] worked out at 0.5 µM (≈ 0.914 µg/mL); in assay [18], 1.41 µM (≈ 2.59 µg/mL); in assay [19], 4 µM (≈ 7.31 µg/mL); in the assay with Escherichia coli BL21, 0.707 µM (≈ 1.29 µg/mL); in assay [20] it was 1.41 µM (≈ 2.59 µg/mL).
With `CC[C@H](C)[C@H](NC(=O)[C@@H](NC(=O)[C@H](Cc1ccccc1)NC(=O)[C@H](CCCCN)NC(=O)[C@@H]1CCCN1C(=O)[C@H](CCCCN)NC(=O)[C@H](CCC(N)=O)NC(=O)[C@@H]1CCCN1C(=O)[C@H](CCCN=C(N)N)NC(=O)[C@H](CCCN=C(N)N)NC(=O)[C@@H](NC(=O)[C@H](CCCN=C(N)N)NC(=O)[C@H](Cc1c[nH]c2ccccc12)NC(=O)[C@H](CC(C)C)NC(=O)[C@H](CC(C)C)NC(=O)[C@H](CC(=O)O)NC(=O)[C@@H](NC(=O)[C@@H](NC(=O)[C@@H](N)CCCN=C(N)N)[C@@H](C)CC)[C@@H](C)CC)C(C)C)C(C)C)C(=O)N[C@H](C(=O)N[C@@H](Cc1c[nH]c2ccccc12)C(=O)N[C@H](C(=O)N[C@@H](CCCN=C(N)N)C(=O)O)C(C)C)C(C)C` [RIIDLLWRVRRPQKPKFVIVWVR], the MIC in assay [21] was 1.05 µM (≈ 3.12 µg/mL); in assay [22], at least 42 µM; in [23], 0.262 µM (≈ 0.78 µg/mL); in the assay on Escherichia coli E44813 it was 4.2 µM (≈ 12.5 µg/mL); in assay [24] it was 25.2 µM (≈ 75 µg/mL); in [12], 0.0084 µM (≈ 0.025 µg/mL). The values for the MIC in assay [25], in assay [26] and in assay [27] were 0.524 µM (≈ 1.56 µg/mL), 0.524 µM (≈ 1.56 µg/mL) and 8.4 µM (≈ 25 µg/mL), respectively.
With `C[C@H](N)C(=O)N[C@@H](C)C(=O)N[C@@H](CC(=O)O)C(=O)N[C@@H](CC(=O)O)C(=O)N[C@@H](CC(=O)O)C(=O)N[C@@H](CC(=O)O)C(=O)N[C@@H](CC(=O)O)C(=O)O` [AADDDDD], the MIC in assay [28] was 30 µM (≈ 22.1 µg/mL).
On to `CC[C@H](C)[C@H](NC(=O)[C@H](CC(C)C)NC(=O)[C@@H](NC(=O)[C@@H](N)CC(=O)O)[C@@H](C)CC)C(=O)N[C@H](C(=O)N[C@H](C(=O)NCC(=O)NCC(N)=O)C(C)C)[C@@H](C)CC` [DILIIVGG], for which the MIC in assay [29] was over 64 µM; in [30], at least 64 µM; against Escherichia coli UB1005, at least 64 µM; in the assay with Escherichia coli 078, at least 64 µM; in assay [7], over 64 µM; in [8], at least 64 µM. Also, the MIC is over 64 µM in [11]; at least 64 µM against Streptococcus agalactiae; at least 64 µM in assay [31]; over 64 µM in assay [12]; over 64 µM in assay [32]; at least 64 µM in [14]. The figures for the MIC in assay [33] and in [15] were at least 64 µM and over 64 µM, respectively.
